# Data taken from patent US9872868B2, “Mitochondrially-targeted electrophilic compounds and methods of use for the treatment of cancer” (UAB Research Foundation, priority 2013, dated 2018).
# Key:
# [1] = tested on: breast cancer cells; conditions: by altering p38 and ERK signaling; cited from earlier work
# [2] = tested on: MDA-MB 231 cells; experiment: Mitochondrial bioenergetic assay, Extracellular Flux Analyzer XF-24 (OCR); type: cell-based, human; conditions: 5 μM, 4 h, 0.5% serum containing medium, vs EtOH vehicle
# Description: FIG. 3. Bioenergetic response of breast cancer cells to MTE. Panel A. A schematic representation of the mitochondrial bioenergetic assay in an Extracellular Flux Analyzer XF-24 (Seahorse Biosciences). Panel A: Sequential injections of oligomycin, FCCP, and Antimycin A allow determination of the component mitochondrial bioenergetic parameters. Panel B. MDA-MB 231 cells were treated for 4 h in 0.5% serum containing medium with EtOH vehicle, IBTP (5 μM), or BTPP (5 μM) and the OCR measured over time. Panel C. Comparison of basal OCR, ATP-dependent OCR, and reserve capacity (RC) with veh and IBTP treatments. Each point is the mean of a minimum of 3 determinations±SEM, from at least 2 independent experiments. Asterisks represent p<0.05. Recent work has shown that MTEs can modulate cell signaling, and depending upon the specific MTE, may do so without causing overt cellular toxicity to cancer cells or normal cells (12). MTEs are small molecules which consist of a triphenylphosphonium lipophilic cationic moiety and a leaving group such as iodide, which renders the adjacent carbon electrophilic. […] We have previously shown reserve capacity is indicative of the cells' ability to withstand a “second hit” of oxidative stress (7).
# [3] = tested on: MCF10A nontumorigenic cells; experiment: Sensitization to doxorubicin in nontumorigenic cells; type: cell-based; conditions: data not shown
# [4] = tested on: cancer or noncancer cells; experiment: Cytotoxicity of the MTE alone; type: cell-based; conditions: data not shown
# [5] = tested on: HIF-1α; experiment: HIF-1α stabilization by western blotting; type: cell-based, human
# Description: FIG. 5. Effects of an MTE on HIF-1α. MDA-MB-231 cells were incubated for 8 h under normoxia or hypoxia and were treated with either 10 μM IBTP or bTPP for 4 h. The lysates were collected and analyzed for HIF-1α stabilization by western blotting.
# However, the mechanism for this decrease in HIF-1α protein is not clear. One possibility is that IBTP inhibits the enzyme within the Krebs cycle, KGDH, that is responsible for converting α-ketoglutarate to succinyl-CoA. Inhibition of this enzyme would cause an increase in α-ketoglutarate, which is a cofactor for the prolyl hydroxylase involved in HIF-1α degradation. We propose that MTEs affect HIF-1α stabilization at least in part, by modulating the activity of KGDH and increasing intracellular levels of α-ketoglutarate. KGDH was previously shown to be among the proteins which form covalent adducts with IBTP (13). Importantly, decreased stabilization of HIF-1α prevents the bioenergetic adaptation to hypoxia in breast cancer cells, as we have recently shown (11)(in press, see Appendix 1).
# [6] = tested on: MDA-MB 231 breast cancer cells; experiment: Cell adhesion (reattachment after scraping), viable non-adherent cells counted with trypan blue; type: cell-based, human
# Description: (§1) FIG. 7. Two ×10^5 cells/plate were plated on a 6-well plate, 24 hrs after plating cells were starved in 0.5% FCS containing media for another 24 hrs. Cells were then treated for another 24 hrs with increasing doses of IBTP or the non-reactive analog butyl-triphenylphosphonium (BTPP) as a control. Cells were scraped and made into single cell suspension. Cells were counted and plated in 100-mm tissue culture plate. After 24 hrs the media is collected, centrifuged and the viable cells were counted using trypan blue.
# FIG. 2. Two×10^5 cells/plate were plated on a 6-well plate, 24 hrs after plating cells were starved in 0.5% FCS containing media for another 24 hrs.
# as §1, with “Cells” for “FIG. 7. Two ×10^5 cells/plate were plated on a 6-well plate, 24 hrs after plating cells were starved in 0.5% FCS containing media for another 24 hrs. Cells”
# [7] = tested on: MDA-MB 231 breast cancer cells; experiment: Cell death and clonogenic survival; type: cell-based
# [8] = tested on: aconitase (ACO), isocitrate dehydrogenase (IDH), and α-ketoglutarate dehydrogenase (KGDH); conditions: cited from earlier work
# [9] = cited from earlier work
# [10] = i.p. injection; cited from earlier work
compound,measurement,setting,value
"CCCCC/C=C/C=C1/C(=O)C=C[C@@H]1C/C=C\CCCC(=O)O [15d-PGJ2, 15 deoxy-prostaglandin J2]",migration of breast cancer cells,[1],inhibits migration
"ICCCC[P+](c1ccccc1)(c1ccccc1)c1ccccc1 [IBTP, iodobutyl triphenylphosphonium iodide]",basal OCR,[2],decrease basal OCR
same,reserve capacity (RC),[2],completely abrogates the reserve capacity
same,sensitization to doxorubicin,[3],did not sensitize
same,cytotoxicity,[4],not cytotoxic
same,constitutive and hypoxia-inducible expression of HIF-1α protein,"[5]; MDA-MB-231, 10 μM, 4 h, normoxia or hypoxia 8 h",inhibits both constitutive and hypoxia-inducible expression of HIF-1α protein
same,basal HIF-1α stabilization,"[5]; MDA-MB-231, data not shown",inhibited basal HIF-1α stabilization both time and dose-dependently
same,reattachment to tissue culture plates after scraping,"[6]; 10 μM, 24 h",failed to reattach
same,inhibition at 10 µM,"[6]; Homo sapiens, MDA-MB-231, read-out: cells whose adhesion is inhibited after detachment",~15%
same,overt cell death,"[7]; 10 μM, 24 h",no evidence of overt cell death
same,clonogenic survival,"[7]; 10 μM, data not shown",significantly decreased clonogenic survival
same,cytotoxicity at higher concentrations,"[7]; concentrations higher than 10 μM, MDA-MB 231 and other cell types",can be cytotoxic
same,covalent adducts with Krebs cycle proteins,[8],forms covalent adducts
COC1=C(OC)C(=O)C(CCCCCCCCCC[P+](c2ccccc2)(c2ccccc2)c2ccccc2)=C(C)C1=O [mitoQ],oral bioavailability,[9]; clinical trials,orally bioavailable
same,tolerability,[9]; clinical trials,well tolerated
same,efficacy in Parkinson's Disease,[9]; phase I clinical trials,not found to be effective
same,dose up to which no toxicity was observed,[10],up to 750 nmol mitoQ/mouse
